Reference: PubChem BioAssay AID1259407 (Chemical Carcinogenesis Research Information System (CCRIS), 2018)
Active and inactive are the calls of the source. No rule for the calls is given here.

System: CCRIS mutagenicity, Ames/micronucleus/aberration tests
Assay: CCRIS mutagenicity studies
[1] = Test System: MOUSE LYMPHOMA, Strain/Indicator: L5178Y (TK+/TK-), Metabolic Activation: NONE, Method: SUSPENSION/PLATE
[2] = Test System: AMES SALMONELLA TYPHIMURIUM, Strain/Indicator: TA98, Metabolic Activation: NONE, Method: PREINCUBATION
[3] = Test System: Mouse lymphoma, Strain/Indicator: L5178Y (tk+/tk-), Metabolic Activation: Rat, Liver, S-9, Aroclor 1254, Method: Suspension/plate
[4] = Test System: AMES SALMONELLA TYPHIMURIUM, Strain/Indicator: TA100, Metabolic Activation: NONE, Method: PREINCUBATION
[5] = Test System: AMES SALMONELLA TYPHIMURIUM, Strain/Indicator: TA1535, Metabolic Activation: NONE, Method: PREINCUBATION
[6] = Test System: AMES SALMONELLA TYPHIMURIUM, Strain/Indicator: TA98, Metabolic Activation: HAMSTER, LIVER, S-9, AROCLOR 1254, Method: PREINCUBATION
[7] = Test System: AMES SALMONELLA TYPHIMURIUM, Strain/Indicator: TA98, Metabolic Activation: RAT, LIVER, S-9, AROCLOR 1254, Method: PREINCUBATION
[8] = Test System: AMES SALMONELLA TYPHIMURIUM, Strain/Indicator: TA100, Metabolic Activation: HAMSTER, LIVER, S-9, AROCLOR 1254, Method: PREINCUBATION
[9] = Test System: AMES SALMONELLA TYPHIMURIUM, Strain/Indicator: TA100, Metabolic Activation: RAT, LIVER, S-9, AROCLOR 1254, Method: PREINCUBATION
[10] = Test System: AMES SALMONELLA TYPHIMURIUM, Strain/Indicator: TA1535, Metabolic Activation: HAMSTER, LIVER, S-9, AROCLOR 1254, Method: PREINCUBATION
[11] = Test System: AMES SALMONELLA TYPHIMURIUM, Strain/Indicator: TA1535, Metabolic Activation: RAT, LIVER, S-9, AROCLOR 1254, Method: PREINCUBATION
[12] = Test System: AMES SALMONELLA TYPHIMURIUM, Strain/Indicator: TA1537, Metabolic Activation: HAMSTER, LIVER, S-9, AROCLOR 1254, Method: PREINCUBATION
[13] = Test System: AMES SALMONELLA TYPHIMURIUM, Strain/Indicator: TA1537, Metabolic Activation: NONE, Method: PREINCUBATION
[14] = Test System: AMES SALMONELLA TYPHIMURIUM, Strain/Indicator: TA1537, Metabolic Activation: RAT, LIVER, S-9, AROCLOR 1254, Method: PREINCUBATION

For `[O-][n+]1cccc2c1C=C[C@H]1O[C@@H]21`, the mutagenic call (Test System: AMES SALMONELLA TYPHIMURIUM, Strain/Indicator: TA100, Metabolic Activation: NONE, Method: STANDARD PLATE) was “inactive; negative” and the mutagenic call (Test System: AMES SALMONELLA TYPHIMURIUM, Strain/Indicator: TA100, Metabolic Activation: RAT, LIVER, S-9, AROCLOR 1254 (10% OR 20%), Method: STANDARD PLATE) was “inactive; negative”.
In the case of `C=CC(=O)OCCO`, the mutagenic call (End Point: In vitro chromosomal aberrations, Test System: Chinese hamster lung (CHL/IU) cells, Metabolic Activation: Rat, Liver, S9, Phenobarbital and 5,6-benzoflavone) is reported as “active; positive (structural changes and ploidy)”, the mutagenic call (Test System: AMES SALMONELLA TYPHIMURIUM, Strain/Indicator: TA102, Metabolic Activation: RAT, LIVER, S-9, PHENOBARBITAL AND 5,6-BENZOFLAVONE, Method: STANDARD PLATE) is reported as “inactive; negative” and the mutagenic call (Test System: AMES SALMONELLA TYPHIMURIUM, Strain/Indicator: TA2638, Metabolic Activation: RAT, LIVER, S-9, PHENOBARBITAL AND 5,6-BENZOFLAVONE, Method: STANDARD PLATE) is reported as “inactive; negative”. For the same molecule, the mutagenic call (Test System: Ames Salmonella typhimurium, Strain/Indicator: TA98, Metabolic Activation: None, Method: Preincubation) was “inactive; negative”, the mutagenic call (Test System: Ames Salmonella typhimurium, Strain/Indicator: TA98, Metabolic Activation: Rat, Liver, S9, Sodium phenobarbital and 5,6-benzoflavone (10%), Method: Preincubation) was “inactive; negative” and the mutagenic call (Test System: Ames Salmonella typhimurium, Strain/Indicator: TA100, Metabolic Activation: None, Method: Preincubation) was “inactive; negative”. For the same molecule, the mutagenic call (Test System: Ames Salmonella typhimurium, Strain/Indicator: TA100, Metabolic Activation: Rat, Liver, S9, Sodium phenobarbital and 5,6-benzoflavone (10%), Method: Preincubation) was “inactive; negative”, the mutagenic call (Test System: Ames Salmonella typhimurium, Strain/Indicator: TA1535, Metabolic Activation: None, Method: Preincubation) was “inactive; negative” and the mutagenic call (Test System: Ames Salmonella typhimurium, Strain/Indicator: TA1535, Metabolic Activation: Rat, Liver, S9, Sodium phenobarbital and 5,6-benzoflavone (10%), Method: Preincubation) was “inactive; negative”. The mutagenic call (Test System: Ames Salmonella typhimurium, Strain/Indicator: TA1537, Metabolic Activation: None, Method: Preincubation) was “inactive; negative”, the mutagenic call (Test System: Ames Salmonella typhimurium, Strain/Indicator: TA1537, Metabolic Activation: Rat, Liver, S9, Sodium phenobarbital and 5,6-benzoflavone (10%), Method: Preincubation) was “inactive; negative” and the mutagenic call (Test System: E. COLI, Strain/Indicator: WP2 (PKM101), Metabolic Activation: RAT, LIVER, S-9, PHENOBARBITAL AND 5,6-BENZOFLAVONE, Method: STANDARD PLATE) was “active; positive”. For the same molecule, the mutagenic call (Test System: E. COLI, Strain/Indicator: WP2 UVRA (PKM101), Metabolic Activation: RAT, LIVER, S-9, PHENOBARBITAL AND 5,6-BENZOFLAVONE, Method: STANDARD PLATE) was “active; positive”, the mutagenic call (Test System: E. coli, Strain/Indicator: WP2uvrA/pKM101, Metabolic Activation: None, Method: Preincubation) was “active; positive” and the mutagenic call [1] was “active; positive”.
In the case of `CC(C)(C)NC(=O)C=Cc1ccc([N+](=O)[O-])o1`, the mutagenic call [2] is reported as “active; positive”.
With `COC(=O)[C@@H]1[C@H]2C[C@H]3c4[nH]c5ccccc5c4CCN3C[C@@H]2CC[C@@H]1O` the mutagenic call (Test System: Mouse lymphoma, Strain/Indicator: L5178Y (tk+/tk-), Metabolic Activation: None, Method: Suspension/plate) was “inactive; inconclusive (previous evaluation negative)” and the mutagenic call [3] was “inactive; inconclusive (previous evaluation negative)”.
For `CCOc1cccc2cccnc12`, the mutagenic call (Test System: AMES SALMONELLA TYPHIMURIUM, Strain/Indicator: TA100, Metabolic Activation: S-9, Method: PREINCUBATION) was “inactive; negative”.
`OCC(O)CCl` (centres undefined) was tested, and the mutagenic call (Test System: AMES SALMONELLA TYPHIMURIUM, Strain/Indicator: TA97, Metabolic Activation: HAMSTER, LIVER, S-9, AROCLOR 1254 (10%), Method: PREINCUBATION) was “inactive; negative”, the mutagenic call (Test System: AMES SALMONELLA TYPHIMURIUM, Strain/Indicator: TA97, Metabolic Activation: RAT, LIVER, S-9, AROCLOR 1254 (10%), Method: PREINCUBATION) was “inactive; negative” and the mutagenic call (Test System: AMES SALMONELLA TYPHIMURIUM, Strain/Indicator: TA98, Metabolic Activation: HAMSTER, LIVER, S-9, AROCLOR 1254 (10%), Method: PREINCUBATION) was “inactive; negative”. The mutagenic call (Test System: AMES SALMONELLA TYPHIMURIUM, Strain/Indicator: TA98, Metabolic Activation: RAT, LIVER, S-9, AROCLOR 1254 (10%), Method: PREINCUBATION) was “inactive; negative”, the mutagenic call (Test System: AMES SALMONELLA TYPHIMURIUM, Strain/Indicator: TA98, Metabolic Activation: RAT, LIVER, S-9, KANECHLOR 500, Method: PREINCUBATION) was “inactive; negative” and the mutagenic call (Test System: AMES SALMONELLA TYPHIMURIUM, Strain/Indicator: TA100, Metabolic Activation: HAMSTER, LIVER, S-9, AROCLOR 1254 (10%), Method: PREINCUBATION) was “active; positive”. The mutagenic call [4] was “active; positive”, the mutagenic call (Test System: AMES SALMONELLA TYPHIMURIUM, Strain/Indicator: TA100, Metabolic Activation: RAT, LIVER, S-9, AROCLOR 1254 (10%), Method: PREINCUBATION) was “active; positive” and the mutagenic call (Test System: AMES SALMONELLA TYPHIMURIUM, Strain/Indicator: TA100, Metabolic Activation: RAT, LIVER, S-9, KANECHLOR 500, Method: PREINCUBATION) was “inactive; negative”. The mutagenic call (Test System: AMES SALMONELLA TYPHIMURIUM, Strain/Indicator: TA1535, Metabolic Activation: HAMSTER, LIVER, S-9, AROCLOR 1254 (10%), Method: PREINCUBATION) was “active; positive”, the mutagenic call [5] was “active; positive” and the mutagenic call (Test System: AMES SALMONELLA TYPHIMURIUM, Strain/Indicator: TA1535, Metabolic Activation: RAT, LIVER, S-9, AROCLOR 1254 (10%), Method: PREINCUBATION) was “active; positive”.
In the case of `CC1CS1` (centres undefined), the mutagenic call [6] is reported as “inactive; negative”, the mutagenic call [2] is reported as “inactive; negative” and the mutagenic call [7] is reported as “inactive; negative”. The mutagenic call [8] was “inactive; negative”, the mutagenic call [4] was “inactive; negative” and the mutagenic call [9] was “inactive; negative”. The mutagenic call [10] was “inactive; negative”, the mutagenic call [5] was “inactive; negative” and the mutagenic call [11] was “inactive; negative”. The mutagenic call [12] was “inactive; negative”, the mutagenic call [13] was “inactive; negative” and the mutagenic call [14] was “inactive; negative”. For the same molecule, the mutagenic call (Test System: AMES SALMONELLA TYPHIMURIUM, Strain/Indicator: TA1538, Metabolic Activation: HAMSTER, LIVER, S-9, AROCLOR 1254, Method: PREINCUBATION) was “inactive; negative”, the mutagenic call (Test System: AMES SALMONELLA TYPHIMURIUM, Strain/Indicator: TA1538, Metabolic Activation: NONE, Method: PREINCUBATION) was “inactive; negative” and the mutagenic call (Test System: AMES SALMONELLA TYPHIMURIUM, Strain/Indicator: TA1538, Metabolic Activation: RAT, LIVER, S-9, AROCLOR 1254, Method: PREINCUBATION) was “inactive; negative”. The mutagenic call [1] was “active; positive. reevaluation of results: positive” and the mutagenic call [3] was “active; equivocal (previous evaluation positive)”.
With `CC1(C)C(=O)N(Cl)C(=O)N1Cl` the mutagenic call (End Point: IN VITRO CHROMOSOMAL ABERRATIONS, Test System: CHINESE HAMSTER OVARY CELLS, Metabolic Activation: NONE) was “inactive; negative”, the mutagenic call (End Point: IN VITRO CHROMOSOMAL ABERRATIONS, Test System: CHINESE HAMSTER OVARY CELLS, Metabolic Activation: RAT, LIVER, S-9, AROCLOR 1254) was “inactive; negative” and the mutagenic call [6] was “inactive; negative”. The mutagenic call [2] was “inactive; negative”, the mutagenic call [7] was “inactive; negative” and the mutagenic call [8] was “inactive; negative”. The mutagenic call [4] was “inactive; negative”, the mutagenic call [9] was “inactive; negative” and the mutagenic call [10] was “inactive; negative”. The mutagenic call [5] was “inactive; negative”, the mutagenic call [11] was “inactive; negative” and the mutagenic call [12] was “inactive; negative”. For the same molecule, the mutagenic call [13] was “inactive; negative” and the mutagenic call [14] was “inactive; negative”.
